Reference: patent US12059409B1, “Pharmaceutical composition for modified release” (ASTELLAS PHARMA INC., priority 2008, dated 2024)

Assay: Clinical trial of compound A in conventional formulations (not published)
Settings: human, in vivo; read-out: elimination half-life (T1/2)
Source text: These problems are considered to be raised by, for example, the changes in pharmacokinetics caused by food, and therefore, the development of a formulation capable of avoiding the effects by food intake is desired.
Taking into consideration the results of the clinical trial described above, the present inventors conducted intensive studies to design the formulation by paying attention to the control of a release rate of the drug from a formulation to the extent that the release is not affected by food intake or the like, rather than the addition of release control.
On the basis of blood concentration profiles (in a fasted state/after the intake of food) after administration of a conventional formulation (rapid release formulation), the absorption rate of the drug in a fed state was calculated by a deconvolution method to predict continuous absorption for about 4 hours.

Question: For Nc1nc(CC(=O)Nc2ccc(CCNC[C@H](O)c3ccccc3)cc2)cs1 [compound A, (R)-2-(2-aminothiazol-4-yl)-4′-[2-[(2-hydroxy-2-phenylethyl)amino]ethyl]acetic acid anilide], which half-life is on record?
Answer: Its half-life is 18 to 24 h.
